Results taken from PubChem BioAssay (NCI).
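1) Cells in 96-well plates. 2) Compound, 48 h, 5 concentrations. 3) Linear interpolation between surrounding doses. 4) Unreached endpoint = highest concentration. GI50: concentration for 50% inhibition of growth. TGI marks complete inhibition of growth.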

Columns and labels:
Assay in all cases: DTP human tumour cell line panel, 48 h
ACHN renal = system: ACHN renal
COLO 205 colon = system: COLO 205 colon
HOP-92 NSCLC = system: HOP-92 NSCLC
M14 melanoma = system: M14 melanoma
NCI-H226 lung = system: NCI-H226 lung
NCI-H522 lung = system: NCI-H522 lung
OVCAR-8 ovarian = system: OVCAR-8 ovarian
SF-539 CNS = system: SF-539 CNS
SK-OV-3 ovarian = system: SK-OV-3 ovarian
UACC-257 melanoma = system: UACC-257 melanoma

## Cc1cc(N2CCCCC2)nc(N(CCNc2ccnc3cc(Cl)ccc23)Cc2ccco2)n1
ACHN renal
  GI50: 2720 nM
  TGI: 8.06 µM
COLO 205 colon
  GI50: 1490 nM
  TGI: 3.25 µM
HOP-92 NSCLC
  GI50: 5.73 µM
  TGI: 21.7 µM
M14 melanoma
  GI50: 1820 nM
  TGI: 3.61 µM
NCI-H226 lung
  GI50: 1690 nM
  TGI: 3.96 µM
NCI-H522 lung
  GI50: 1610 nM
  TGI: 3.52 µM
OVCAR-8 ovarian
  GI50: 1850 nM
  TGI: 3.68 µM
SF-539 CNS
  GI50: 2050 nM
  TGI: 4.2 µM
SK-OV-3 ovarian
  GI50: 2150 nM
  TGI: 4.9 µM
UACC-257 melanoma
  GI50: 2.35 µM
  TGI: 5.79 µM

## C=C1C(=O)OC2CC3(C)C=CC(=O)C(=C)C3CC12 (stereo not given)
ACHN renal
  TGI: 3.35 µM
COLO 205 colon
  TGI: 3.05 µM
HOP-92 NSCLC
  TGI: 3.49 µM
M14 melanoma
  TGI: 2.86 µM
NCI-H226 lung
  TGI: 25.8 µM
NCI-H522 lung
  TGI: 1.69 µM
OVCAR-8 ovarian
  TGI: 4.92 µM
SF-539 CNS
  TGI: 3.97 µM
SK-OV-3 ovarian
  TGI: 42.1 µM
UACC-257 melanoma
  TGI: 3.1 µM

## N#CSc1ncnc2nc[nH]c12
ACHN renal
  GI50: 9100 nM
  TGI: > 100 µM
COLO 205 colon
  GI50: 5310 nM
  TGI: 22 µM
HOP-92 NSCLC
  GI50: 6.91 µM
  TGI: > 94 µM
M14 melanoma
  GI50: 1780 nM
  TGI: > 100 µM
NCI-H226 lung
  GI50: > 100000 nM
  TGI: > 100 µM
NCI-H522 lung
  GI50: 3320 nM
  TGI: 25.6 µM
OVCAR-8 ovarian
  GI50: 5720 nM
  TGI: > 100 µM
SF-539 CNS
  GI50: 4140 nM
  TGI: > 65.9 µM
SK-OV-3 ovarian
  GI50: 2420 nM
  TGI: > 100 µM
UACC-257 melanoma
  GI50: 26.2 µM
  TGI: > 100 µM

## CC12CCC=CC1CCC1C2CCC2(C)C(c3ccc(=O)oc3)CCC12O (stereo not given)
ACHN renal
  GI50: 29.7 nM
  TGI: 0.128 µM
COLO 205 colon
  GI50: 333 nM
  TGI: 1.56 µM
HOP-92 NSCLC
  GI50: 0.123 µM
  TGI: 0.639 µM
M14 melanoma
  GI50: 154 nM
  TGI: 0.519 µM
NCI-H226 lung
  GI50: 224 nM
  TGI: 0.614 µM
NCI-H522 lung
  GI50: 39.8 nM
  TGI: 0.283 µM
OVCAR-8 ovarian
  GI50: 99.9 nM
  TGI: 0.501 µM
SF-539 CNS
  GI50: 53.1 nM
  TGI: 0.18 µM
SK-OV-3 ovarian
  GI50: 218 nM
  TGI: 0.641 µM
UACC-257 melanoma
  GI50: 0.255 µM
  TGI: 0.994 µM

## OCC1OC(n2ccc3c2ncn2ncnc32)C(O)C1O (stereo not given)
ACHN renal
  GI50: 719 nM
  TGI: > 100 µM
COLO 205 colon
  GI50: 2770 nM
  TGI: 19.1 µM
HOP-92 NSCLC
  GI50: 0.253 µM
  TGI: 9.22 µM
M14 melanoma
  GI50: 5650 nM
  TGI: > 100 µM
NCI-H226 lung
  GI50: 1590 nM
  TGI: > 100 µM
NCI-H522 lung
  GI50: 90400 nM
  TGI: > 100 µM
OVCAR-8 ovarian
  GI50: 392 nM
  TGI: 5.68 µM
SF-539 CNS
  GI50: 2130 nM
  TGI: 57.3 µM
SK-OV-3 ovarian
  GI50: 2080 nM
  TGI: > 49.2 µM
UACC-257 melanoma
  GI50: > 70.4 µM
  TGI: > 100 µM

## CCc1c(C)[nH]c(/C=C2\N=C(c3ccc[nH]3)C=C2OC)c1C
ACHN renal
  GI50: 316 nM
  TGI: 2.19 µM
COLO 205 colon
  GI50: 268 nM
  TGI: 1.88 µM
HOP-92 NSCLC
  GI50: 0.135 µM
  TGI: 0.682 µM
M14 melanoma
  GI50: 256 nM
  TGI: 2.99 µM
NCI-H226 lung
  GI50: 812 nM
  TGI: 8.83 µM
NCI-H522 lung
  GI50: 576 nM
  TGI: 2.34 µM
OVCAR-8 ovarian
  GI50: 232 nM
  TGI: > 24.1 µM
SF-539 CNS
  GI50: 448 nM
  TGI: 2.16 µM
SK-OV-3 ovarian
  GI50: 2950 nM
  TGI: 13.5 µM
UACC-257 melanoma
  GI50: 0.432 µM
  TGI: 2.65 µM

## COc1cc(Cn2cc3c(c2)-c2oncc2CC3)cc(OC)c1OC
ACHN renal
  GI50: 134 nM
  TGI: > 100 µM
COLO 205 colon
  GI50: 33.2 nM
  TGI: 0.0957 µM
HOP-92 NSCLC
  GI50: 31 µM
  TGI: > 100 µM
M14 melanoma
  GI50: 27.4 nM
  TGI: 38.9 µM
NCI-H226 lung
  GI50: 256 nM
  TGI: > 100 µM
NCI-H522 lung
  GI50: 39.8 nM
  TGI: 1.29 µM
OVCAR-8 ovarian
  GI50: 54.8 nM
  TGI: > 100 µM
SF-539 CNS
  GI50: 23.7 nM
  TGI: 0.0657 µM
SK-OV-3 ovarian
  GI50: 40.2 nM
  TGI: > 57.5 µM
UACC-257 melanoma
  GI50: 1.16 µM
  TGI: 51.7 µM

## O=C(O)[C@@H]1C2CC([C@@H]1C(=O)O)[C@H](N1C(=O)CCC1=O)[C@@H]2Br (stereo not given in full)
ACHN renal
  TGI: > 100 µM
COLO 205 colon
  TGI: > 100 µM
HOP-92 NSCLC
  TGI: > 100 µM
M14 melanoma
  TGI: > 100 µM
NCI-H226 lung
  TGI: > 100 µM
NCI-H522 lung
  TGI: > 100 µM
OVCAR-8 ovarian
  TGI: > 100 µM
SF-539 CNS
  TGI: > 100 µM
SK-OV-3 ovarian
  TGI: > 100 µM
UACC-257 melanoma
  TGI: > 100 µM

## CC(C)(O)c1ccc(N2CCN(c3nnc(Cc4ccccc4)c4ccccc34)CC2)nc1
ACHN renal
  GI50: 11300 nM
  TGI: 47.7 µM
COLO 205 colon
  GI50: 5410 nM
  TGI: 16 µM
HOP-92 NSCLC
  GI50: 7.74 µM
  TGI: 38.7 µM
M14 melanoma
  GI50: 8860 nM
  TGI: 23 µM
NCI-H226 lung
  GI50: 5760 nM
  TGI: 22.4 µM
NCI-H522 lung
  GI50: 6320 nM
  TGI: 20.7 µM
OVCAR-8 ovarian
  GI50: 8010 nM
  TGI: 42.5 µM
SF-539 CNS
  GI50: 12700 nM
  TGI: 29.2 µM
SK-OV-3 ovarian
  GI50: 18700 nM
  TGI: 61.9 µM
UACC-257 melanoma
  GI50: 8.59 µM
  TGI: 21.7 µM

## CC(=O)[O][Pb]([O]C(C)=O)([c]1ccccc1)[c]1ccccc1
ACHN renal
  GI50: > 100000 nM
  TGI: > 100 µM
COLO 205 colon
  GI50: 1760 nM
  TGI: 15 µM
HOP-92 NSCLC
  GI50: 3.62 µM
  TGI: > 100 µM
M14 melanoma
  GI50: > 48000 nM
  TGI: > 100 µM
NCI-H226 lung
  GI50: 64200 nM
  TGI: > 100 µM
NCI-H522 lung
  GI50: 657 nM
  TGI: 7.46 µM
OVCAR-8 ovarian
  GI50: 7150 nM
  TGI: > 100 µM
SF-539 CNS
  GI50: 13300 nM
  TGI: > 100 µM
SK-OV-3 ovarian
  GI50: 28100 nM
  TGI: > 100 µM
UACC-257 melanoma
  GI50: 6.88 µM
  TGI: > 100 µM

## CCOC(=O)c1c2c(n(CC(C)C)c1C)-c1nc[nH]c1C(=O)C2=O
ACHN renal
  GI50: 14200 nM
  TGI: 27.2 µM
COLO 205 colon
  GI50: 18000 nM
  TGI: 32.3 µM
HOP-92 NSCLC
  GI50: 3.82 µM
  TGI: 16.2 µM
M14 melanoma
  GI50: 23000 nM
  TGI: 40.5 µM
NCI-H226 lung
  GI50: 15000 nM
  TGI: 28.5 µM
NCI-H522 lung
  GI50: 15700 nM
  TGI: 29.4 µM
OVCAR-8 ovarian
  GI50: 15800 nM
  TGI: 29.3 µM
SF-539 CNS
  GI50: 14000 nM
  TGI: 26.9 µM
SK-OV-3 ovarian
  GI50: 22400 nM
  TGI: 37.3 µM
UACC-257 melanoma
  GI50: 18.4 µM
  TGI: 32.3 µM

## O=C(NCCCCCCNC(=O)c1cccc2ccccc12)c1cccc2ccccc12
ACHN renal
  TGI: > 100 µM
COLO 205 colon
  TGI: 3.4 µM
HOP-92 NSCLC
  TGI: 25.8 µM
M14 melanoma
  TGI: > 100 µM
NCI-H226 lung
  TGI: 53 µM
NCI-H522 lung
  TGI: > 100 µM
OVCAR-8 ovarian
  TGI: > 100 µM
SF-539 CNS
  TGI: 35.4 µM
SK-OV-3 ovarian
  TGI: 56.9 µM
UACC-257 melanoma
  TGI: > 100 µM

## CC12CCC(=O)C=C1CCC1C2CCC2(C)C(C(=O)Cn3cnc4c(=S)nc[nH]c43)CCC12 (stereo not given)
ACHN renal
  TGI: > 100 µM
COLO 205 colon
  TGI: > 100 µM
HOP-92 NSCLC
  TGI: 37.7 µM
M14 melanoma
  TGI: > 100 µM
NCI-H226 lung
  TGI: > 100 µM
NCI-H522 lung
  TGI: > 100 µM
OVCAR-8 ovarian
  TGI: > 100 µM
SF-539 CNS
  TGI: > 100 µM
SK-OV-3 ovarian
  TGI: > 100 µM
UACC-257 melanoma
  TGI: > 100 µM

## O=S(=O)(c1ccc(NC(=S)NCc2cccnc2)cc1)N1CCCCC1
ACHN renal
  GI50: 29300 nM
  TGI: > 100 µM
COLO 205 colon
  GI50: 8630 nM
  TGI: > 100 µM
HOP-92 NSCLC
  GI50: 11.1 µM
  TGI: > 100 µM
M14 melanoma
  GI50: 3900 nM
  TGI: > 100 µM
NCI-H226 lung
  GI50: 39500 nM
  TGI: > 100 µM
NCI-H522 lung
  GI50: 10100 nM
  TGI: > 100 µM
OVCAR-8 ovarian
  GI50: 99.1 nM
  TGI: > 100 µM
SF-539 CNS
  GI50: 446 nM
  TGI: > 100 µM
SK-OV-3 ovarian
  GI50: > 100000 nM
  TGI: > 100 µM
UACC-257 melanoma
  GI50: 42.6 µM
  TGI: > 100 µM
